These are literature values, as cited in paper PMC8198792, “Prediction of Anticancer Peptides with High Efficacy and Low Toxicity by Hybrid Model Based on 3D Structure of Peptides” (International Journal of Molecular Sciences, 2021).

The series relates to cancer cell lines. Further details: method as in 6 sources, ref CancerPPD [45] and SATPdb ||| ref CancerPPD/SATPdb ||| ref CancerPPD, SATPdb, Swissprot (PDB) ||| ref CancerPPD/SATPdb/Swissprot(PDB) ||| ref CancerPPD / SATPdb ||| ... The settings on record: cited from earlier work. An excerpt: Supplement ijms-22-05630-s001.zip/ACPs(seguence).xlsx, sheet "D1" | column: Activity || Supplement ijms-22-05630-s001.zip/ACPs(seguence).xlsx, sheet "D2" | column: Activity || Supplement ijms-22-05630-s001.zip/ACPs(seguence).xlsx, sheet "D3" | column: Activity || (+ 2 further places)

Where [1] appears, read: ACPs dataset D1, 1 = ACP (positive), 0 = non-ACP (negative), label taken from databases, ref CancerPPD [45] and SATPdb.
The mark [2] stands for this setting: ACPs dataset D4 (sheet "D4"), label 1 = ACP, experimentally validated ACPs, ref CancerPPD [45] and SATPdb.
[3] abbreviates: ACPs dataset D5 (sheet "D5"), label 1 = ACP (positive set), sequences with CancerPPD/SATPdb ID, ref CancerPPD, SATPdb.
Where [4] appears, read: ACPs dataset sheet D2, 1 = ACP (CancerPPD/SATPdb ID), 0 = non-ACP (Swissprot/PDB ID), ref CancerPPD, SATPdb, Swissprot (PDB).
Setting [5] is: ACPs dataset D3 (supplement sheet "D3"), 1 = ACP, 0 = non-ACP, ref CancerPPD [45] and SATPdb.
[6] abbreviates: ACPs dataset D4 (sheet "D4"), label 1 = ACP (CancerPPD ID), 0 = non-ACP (non-anticancer AMP, SATPdb ID), ref CancerPPD [45] and SATPdb.
Where [7] appears, read: ACPs dataset D5 (sheet "D5"), label 1 = ACP (positive set), 0 = non-ACP (negative set), ref CancerPPD [45] and SATPdb.
The mark [8] stands for this setting: ACPs dataset D1, label 1 = ACP, 0 = non-ACP (non-anticancer AMPs from SATPdb), ref CancerPPD/SATPdb.
The mark [9] stands for this setting: ACPs dataset D4 (sheet "D4"), label 1 = ACP, 0 = non-ACP, ref CancerPPD / SATPdb.
Where [10] appears, read: ACPs dataset D3 (sheet "D3"), label 1 = ACP, 0 = non-ACP, ref CancerPPD/SATPdb.
Setting [11] is: ACPs dataset D5, sheet "D5", label 1 = ACP, 0 = non-ACP, ref CancerPPD [45] and SATPdb.
[12] abbreviates: ACPs dataset D2 (supplement ACPs(seguence).xlsx, sheet D2), dataset label 1/0 (ACP / non-ACP), entries identified by Swissprot(PDB ID), ref CancerPPD/SATPdb/Swissprot(PDB).

Read-outs that look alike come from different tables or passages of the source.

Turning to “SWLSKTAKKLENSAKKRISEGIAIAIQGGPR [compound 1235]”, the Activity by setting is: under setting [1], 1; under setting [2], 1; under setting [3], 1; under setting [4], 1.
For the substance GIGKFLHAAKKFAKAFVAEIMNS [compound 1354], the Activity is 1 under setting [5], 1 under setting [6] and 1 under setting [7].
In the case of KWLRRVWRWWR [compound 1877], the Activity is, setting by setting: under setting [5], 1; under setting [6], 1; under setting [7], 1.
Consider “SVSNAATRVARTGRSRWRDVARNFMR [satpdb11117]”, for which the Activity is on record as 0 under setting [1] and 0 under setting [6].
With PIDERLRTCERLSYP [satpdb14897], the Activity is, setting by setting: under setting [1], 1; under setting [2], 1; under setting [3], 1; under setting [4], 1.
For “RTCESPSNKFQGVCLNSQSCAKACPSEGFSGGRCSSLRCYCSKAC [satpdb13976]”, the Activity reads like this: under setting [8], 0; under setting [6], 0.
Turning to “WYVKKCLNDVGICKKKCKPEEMHVKNGWAMCGKGRDCCVPAD [satpdb13381]”, the Activity is 0 under setting [8] and 0 under setting [9].
Take AIGSILGALAKGLPTLISWIKNR [compound 4433]: the Activity under setting [1] is 1, the Activity under setting [2] is reported as 1, the Activity under setting [3] is recorded as 1 and the Activity under setting [4] is 1.
In the case of GIGKFLHSAKKFAKAFVAEIMNS [compound 1047], the Activity under setting [5] is 1, the Activity under setting [6] is reported as 1 and the Activity under setting [7] is 1.
Regarding “ANIKLSVQMKLFKRHLKWKIIVKLNDGRELSLDA [satpdb18078]”, the Activity is reported as 1 under setting [1], 1 under setting [2], 1 under setting [3] and 1 under setting [4].
For the substance FLGWLFKWAWK [compound 1722], the Activity by setting is: under setting [5], 1; under setting [2], 1; under setting [3], 1.
Take ILRWPWWPWRRK [compound 1880]: the Activity runs as follows: under setting [5], 1; under setting [6], 1; under setting [7], 1.
As for GLPRKILAAIAKKK [satpdb14133], the Activity under setting [10] is given as 0, the Activity under setting [9] was 0 and the Activity under setting [11] is recorded as 0.
For “MNQGKIWTVVNPAIGIPALLGSVTVIAILVHLAILSHTTWFPAYWQGGVKKAA [1KZU X-ray 2.50 A/D/G 1-53]”, the Activity is, setting by setting: under setting [12], 0; under setting [11], 0.
Regarding “NPEDWFTPDTCAYGDSNTAWTTCTTPGQTCYTCCSSCFDVVGEQACQMSAQC [2KC6 NMR - A 1-52]”, the Activity is 0 under setting [12] and 0 under setting [11].
Consider “ATYYGNGLYCNKQKCWVDWNKASREIGKIIVNGWVQHGPWAPR [satpdb12250]”, for which the Activity is listed as 0 under setting [8] and 0 under setting [6].
Take KMWSKILGHLIR [compound 3511]: the Activity under setting [5] was 1, the Activity under setting [6] is listed as 1 and the Activity under setting [7] is listed as 1.
As for “rrrrrrrrGEDIIRNIARHAAQVGASMDR [compound 4239]”, the Activity was 1 under setting [5], 1 under setting [6] and 1 under setting [7].
As for RRWCFRVCYRGRFCYRKCR [satpdb14798], the Activity is, setting by setting: under setting [10], 0; under setting [9], 0; under setting [11], 0.
As to HFLLTLVNLAKkIL [satpdb14808], the Activity reads like this: under setting [10], 0; under setting [9], 0; under setting [11], 0.
On to INWKKIAEVGGKILSS [satpdb11077], for which the Activity was 0 under setting [1] and 0 under setting [6].
For FLPAIAGMAAKFLPKIFCAISKKC [satpdb12699], the Activity is 0 under setting [8] and 0 under setting [9].
Turning to “DGVKLCDVPSGTWSGHCGSSSKCSQQCKDREHFAYGGACHYQFPSVKCFCKRQC [2N2Q NMR - A 1-54]”, the Activity by setting is: under setting [12], 0; under setting [11], 0.
With MEPECNLNCTD [satpdb10075], the Activity is listed as 1 under setting [1], 1 under setting [2], 1 under setting [3] and 1 under setting [4].
For VVGSPSAQDEASPL [satpdb16227], the Activity is 1 under setting [1], 1 under setting [2], 1 under setting [3] and 1 under setting [4].
With “MRKEFHNVLSSGQLLADKRPARDYNRK [compound 3072]”, the Activity by setting is: under setting [1], 1; under setting [2], 1; under setting [3], 1; under setting [4], 1.
Take GKWMSLLKHIWK [compound 3655]: the Activity is reported as 1 under setting [5], 1 under setting [6] and 1 under setting [7].
As to TLPFAYCNIHQVCHYAQRNDRSYWL [satpdb12859], the Activity reads like this: under setting [1], 1; under setting [2], 1; under setting [3], 1; under setting [4], 1.
WDLVVVSAGVAEVGV [satpdb12938]: the Activity runs as follows: under setting [1], 1; under setting [2], 1; under setting [3], 1; under setting [4], 1.
Regarding GILGNIVGMGKQVVCGLSGLC [satpdb10178], the Activity by setting is: under setting [1], 0; under setting [6], 0.
For GIWDTIKSMGKVFAGKILQN [satpdb10030], the Activity is on record as 0 under setting [1] and 0 under setting [6].
As for NGREACLDPEAPMVQKIVQKMLKG [satpdb14027], the Activity runs as follows: under setting [1], 1; under setting [2], 1; under setting [3], 1; under setting [4], 1.
With “APRLPQCQGDDQEKCLCNKDECPPGQCRFPRGDADPYCE [1DEC NMR - A 1-39]”, the Activity was 0 under setting [12] and 0 under setting [7].
On to FLPMLAGLAASMVPKLVCLITKKC [satpdb11064], for which the Activity is, setting by setting: under setting [1], 0; under setting [6], 0.
For the substance GKWSKILGHLIR [compound 3641], the Activity under setting [5] is listed as 1, the Activity under setting [6] was 1 and the Activity under setting [7] is 1.
On to GPWERCTAQCGGGIQARRR [satpdb29089], for which the Activity runs as follows: under setting [1], 1; under setting [2], 1; under setting [3], 1; under setting [4], 1.
Consider CKGRGKRCREKQRPSDKPRR [satpdb11644], for which the Activity under setting [1] is 1, the Activity under setting [2] is listed as 1, the Activity under setting [3] was 1 and the Activity under setting [4] is recorded as 1.
For FAKKLAKKLKKLAKKLAKLAKKL [compound 1914], the Activity under setting [5] is 1, the Activity under setting [2] is on record as 1 and the Activity under setting [3] is reported as 1.
Consider “GFGCPGNQLKCNNHCKSISCRAGYCDAATLWLRCTCTDCNGKK [satpdb11046]”, for which the Activity was 0 under setting [1] and 0 under setting [6].
As for LLKWLKK [satpdb13213], the Activity runs as follows: under setting [10], 0; under setting [9], 0; under setting [11], 0.
Consider PGLKGKRGDSGSPATWTTRG [satpdb10562], for which the Activity by setting is: under setting [1], 1; under setting [2], 1; under setting [3], 1; under setting [4], 1.
“ALALLOHALHOLALLAOHLAHOLALA [satpdb14515]”: the Activity by setting is: under setting [10], 0; under setting [9], 0; under setting [11], 0.
Take FAKKFAKKFKKFAKKFAKFAFAF [compound 1910]: the Activity is given as 1 under setting [5], 1 under setting [2] and 1 under setting [3].
Regarding “TFRAFLSSRLQDLYSIVRRADRAAV [compound 4202]”, the Activity is given as 1 under setting [1], 1 under setting [2], 1 under setting [3] and 1 under setting [4].
On to AKRHHGYKRKFH [compound 1423], for which the Activity under setting [5] was 1, the Activity under setting [2] is 1 and the Activity under setting [3] is listed as 1.
For RRWCFRVCYR GFCYRKCR [1RKK NMR - A 1-18], the Activity is reported as 0 under setting [7] and 0 under setting [4].
Take FLSSIGKILGNLL [satpdb11843]: the Activity reads like this: under setting [8], 0; under setting [6], 0.
